Results reported in PMC11003488 (Journal of Enzyme Inhibition and Medicinal Chemistry, 2023).

Legend:
CCRF-CEM = assay: NCI-60 SRB growth inhibition, one-dose and five-dose; format: cell-based; conditions: Homo sapiens, read-out: percent growth inhibition
K-562 = assay: as above; format: cell-based; conditions: Homo sapiens, K562, read-out: percent growth inhibition
EKVX = assay: as above; format: cell-based; conditions: Homo sapiens, read-out: percent growth inhibition
HOP-62 = assay: as above; format: cell-based; conditions: Homo sapiens, HOP-62, read-out: percent growth inhibition
HOP-92 = assay: as above; format: cell-based; conditions: Homo sapiens, HOP-92, read-out: percent growth inhibition
NCI-H226 = assay: as above; format: cell-based; conditions: Homo sapiens, NCI-H226, read-out: percent growth inhibition
NCI-H23 = assay: as above; format: cell-based; conditions: Homo sapiens, NCI-H23, read-out: percent growth inhibition
NCI-H322M = assay: as above; format: cell-based; conditions: Homo sapiens, read-out: percent growth inhibition
NCI-H460 = assay: as above; format: cell-based; conditions: Homo sapiens, NCI-H460, read-out: percent growth inhibition
NCI-H522 = assay: as above; format: cell-based; conditions: Homo sapiens, NCI-H522, read-out: percent growth inhibition
COLO 205 = assay: as above; format: cell-based; conditions: Homo sapiens, COLO 205, read-out: percent growth inhibition
HCC-2998 = assay: as above; format: cell-based; conditions: Homo sapiens, HCC 2998, read-out: percent growth inhibition
HCT-116 = assay: as above; format: cell-based; conditions: Homo sapiens, HCT-116, read-out: percent growth inhibition
HCT-15 = assay: as above; format: cell-based; conditions: Homo sapiens, HCT-15, read-out: percent growth inhibition
HT29 = assay: as above; format: cell-based; conditions: Homo sapiens, HT-29, read-out: percent growth inhibition
KM12 = assay: as above; format: cell-based; conditions: Homo sapiens, KM12, read-out: percent growth inhibition
SF-268 = assay: as above; format: cell-based; conditions: Homo sapiens, SF-268, read-out: percent growth inhibition
U251 = assay: as above; format: cell-based; conditions: Homo sapiens, U-251, read-out: percent growth inhibition
LOX IMVI = assay: as above; format: cell-based; conditions: Homo sapiens, read-out: percent growth inhibition
MALME-3M = assay: as above; format: cell-based; conditions: Homo sapiens, read-out: percent growth inhibition
M14 = assay: as above; format: cell-based; conditions: Homo sapiens, M14, read-out: percent growth inhibition
SK-MEL-28 = assay: as above; format: cell-based; conditions: Homo sapiens, SK-MEL-28, read-out: percent growth inhibition
SK-MEL-5 = assay: as above; format: cell-based; conditions: Homo sapiens, SK-MEL-5, read-out: percent growth inhibition
UACC-62 = assay: as above; format: cell-based; conditions: Homo sapiens, UACC-62, read-out: percent growth inhibition
IGROV1 = assay: as above; format: cell-based; conditions: Homo sapiens, IGROV-1, read-out: percent growth inhibition
OVCAR-3 = assay: as above; format: cell-based; conditions: Homo sapiens, OVCAR-3, read-out: percent growth inhibition
OVCAR-4 = assay: as above; format: cell-based; conditions: Homo sapiens, OVCAR-4, read-out: percent growth inhibition
OVCAR-5 = assay: as above; format: cell-based; conditions: Homo sapiens, OVCAR-5, read-out: percent growth inhibition
NCI/ADR-RES = assay: as above; format: cell-based; conditions: Homo sapiens, read-out: percent growth inhibition
SK-OV-3 = assay: as above; format: cell-based; conditions: Homo sapiens, SK-OV-3, read-out: percent growth inhibition
786-0 = assay: as above; format: cell-based; conditions: Homo sapiens, 786-0, read-out: percent growth inhibition
A498 = assay: as above; format: cell-based; conditions: Homo sapiens, A498, read-out: percent growth inhibition
ACHN = assay: as above; format: cell-based; conditions: Homo sapiens, read-out: percent growth inhibition
TK-10 = assay: as above; format: cell-based; conditions: Homo sapiens, TK-10, read-out: percent growth inhibition
PC-3 = assay: as above; format: cell-based; conditions: Homo sapiens, PC-3, read-out: percent growth inhibition
MCF7 = assay: as above; format: cell-based; conditions: Homo sapiens, MCF7, read-out: percent growth inhibition
HS 578 T = assay: as above; format: cell-based; conditions: Homo sapiens, read-out: percent growth inhibition
BT-549 = assay: as above; format: cell-based; conditions: Homo sapiens, BT-549, read-out: percent growth inhibition
T-47D = assay: as above; format: cell-based; conditions: Homo sapiens, T47D, read-out: percent growth inhibition
[1] = test system: NCI 60-cell line panel (full panel); assay: NCI-60 SRB growth inhibition, full panel mean / MG-MID; format: cell-based, human; conditions: mean over NCI-60 panel; single dose 10 µM

Row | SMILES | inhibition at 10 µM (CCRF-CEM) [%] | inhibition at 10 µM (K-562) [%] | inhibition at 10 µM (EKVX) [%] | inhibition at 10 µM (HOP-62) [%] | inhibition at 10 µM (HOP-92) [%] | inhibition at 10 µM (NCI-H226) [%] | inhibition at 10 µM (NCI-H23) [%] | inhibition at 10 µM (NCI-H322M) [%] | inhibition at 10 µM (NCI-H460) [%] | inhibition at 10 µM (NCI-H522) [%] | inhibition at 10 µM (COLO 205) [%] | inhibition at 10 µM (HCC-2998) [%] | inhibition at 10 µM (HCT-116) [%] | inhibition at 10 µM (HCT-15) [%] | inhibition at 10 µM (HT29) [%] | inhibition at 10 µM (KM12) [%] | inhibition at 10 µM (SF-268) [%] | inhibition at 10 µM (U251) [%] | inhibition at 10 µM (LOX IMVI) [%] | inhibition at 10 µM (MALME-3M) [%] | other results
1 | O=C(/C=C/c1c[nH]cn1)c1cccc(NCc2ccc(CO)cc2)c1 [Compound 5m, (E)-1–(3-((4-(hydroxymethyl)benzyl)amino)phenyl)-3-(1H-imidazol-4-yl)prop-2-en-1-one] | 45.6 | 80.4 | 32.2 | 13.9 | 22.2 | 14.6 | 18.6 | 13 | 6.83 | 89.4 | -0.06 | -0.68 | 36.5 | 21.5 | 24.9 | 9.57 | 8.96 | 56 | 58.6 | 23.1 | inhibition at 10 µM (M14): 15%; inhibition at 10 µM (SK-MEL-28): 6.66%; inhibition at 10 µM (SK-MEL-5): 21.7%; inhibition at 10 µM (UACC-62): 30.5%; inhibition at 10 µM (IGROV1): 9.93%; inhibition at 10 µM (OVCAR-3): 5.3%; inhibition at 10 µM (OVCAR-4): 22%; inhibition at 10 µM (OVCAR-5): -1.46%; inhibition at 10 µM (NCI/ADR-RES): 6.75%; inhibition at 10 µM (SK-OV-3): -2.54%; inhibition at 10 µM (786-0): 11.7%; inhibition at 10 µM (A498): 2.28%; inhibition at 10 µM (ACHN): 16.6%; inhibition at 10 µM (TK-10): 6.96%; inhibition at 10 µM (PC-3): 11.3%; inhibition at 10 µM (MCF7): 66%; inhibition at 10 µM (HS 578 T): 4.31%; inhibition at 10 µM (BT-549): 34%; inhibition at 10 µM (T-47D): 47.8%; Full panel Mean GI % [1]: 25.19%
2 | O=C(/C=C/c1c[nH]cn1)c1cccc(NCc2ccc3oc(=O)ccc3c2)c1 [Compound 5n, (E)-6-(((3–(3-(1H-imidazol-4-yl)acryloyl)phenyl)amino)methyl)-2H-chromen-2-one] | 62.1 | 87.2 | 45.6 | 24.3 | 25.8 | 28.2 | 28.3 | 18.1 | 23.4 | 138 | 29.2 | 16.8 | 58.1 | 33.9 | 63.2 | 25.1 | 10.9 | 68.2 | 75.9 | 37.8 | inhibition at 10 µM (M14): 24.5%; inhibition at 10 µM (SK-MEL-28): 13.3%; inhibition at 10 µM (SK-MEL-5): 30.6%; inhibition at 10 µM (UACC-62): 45.2%; inhibition at 10 µM (IGROV1): 16.6%; inhibition at 10 µM (OVCAR-3): 13.8%; inhibition at 10 µM (OVCAR-4): 39.2%; inhibition at 10 µM (OVCAR-5): 10.4%; inhibition at 10 µM (NCI/ADR-RES): 10.6%; inhibition at 10 µM (SK-OV-3): -4.46%; inhibition at 10 µM (786-0): 31.8%; inhibition at 10 µM (A498): 4.82%; inhibition at 10 µM (ACHN): 24.8%; inhibition at 10 µM (TK-10): 30%; inhibition at 10 µM (PC-3): 17.1%; inhibition at 10 µM (MCF7): 90.1%; inhibition at 10 µM (HS 578 T): 13.6%; inhibition at 10 µM (BT-549): 22.9%; inhibition at 10 µM (T-47D): 54%; Full panel Mean GI % [1]: 37.53%
